The experiment addresses Multidrug resistance associated protein (Homo sapiens) (UniProt Q96QA9). Briefly: TP_TRANSPORTER: uptake in membrane vesicles from HEK293T cells. To be noted: HEK293; Membrane vesicle. In kind it is functional, cell membranes.

The structures appear in SMILES notation.

Multidrug resistance associated protein (Homo sapiens), sequence (Q96QA9 as listed by the source): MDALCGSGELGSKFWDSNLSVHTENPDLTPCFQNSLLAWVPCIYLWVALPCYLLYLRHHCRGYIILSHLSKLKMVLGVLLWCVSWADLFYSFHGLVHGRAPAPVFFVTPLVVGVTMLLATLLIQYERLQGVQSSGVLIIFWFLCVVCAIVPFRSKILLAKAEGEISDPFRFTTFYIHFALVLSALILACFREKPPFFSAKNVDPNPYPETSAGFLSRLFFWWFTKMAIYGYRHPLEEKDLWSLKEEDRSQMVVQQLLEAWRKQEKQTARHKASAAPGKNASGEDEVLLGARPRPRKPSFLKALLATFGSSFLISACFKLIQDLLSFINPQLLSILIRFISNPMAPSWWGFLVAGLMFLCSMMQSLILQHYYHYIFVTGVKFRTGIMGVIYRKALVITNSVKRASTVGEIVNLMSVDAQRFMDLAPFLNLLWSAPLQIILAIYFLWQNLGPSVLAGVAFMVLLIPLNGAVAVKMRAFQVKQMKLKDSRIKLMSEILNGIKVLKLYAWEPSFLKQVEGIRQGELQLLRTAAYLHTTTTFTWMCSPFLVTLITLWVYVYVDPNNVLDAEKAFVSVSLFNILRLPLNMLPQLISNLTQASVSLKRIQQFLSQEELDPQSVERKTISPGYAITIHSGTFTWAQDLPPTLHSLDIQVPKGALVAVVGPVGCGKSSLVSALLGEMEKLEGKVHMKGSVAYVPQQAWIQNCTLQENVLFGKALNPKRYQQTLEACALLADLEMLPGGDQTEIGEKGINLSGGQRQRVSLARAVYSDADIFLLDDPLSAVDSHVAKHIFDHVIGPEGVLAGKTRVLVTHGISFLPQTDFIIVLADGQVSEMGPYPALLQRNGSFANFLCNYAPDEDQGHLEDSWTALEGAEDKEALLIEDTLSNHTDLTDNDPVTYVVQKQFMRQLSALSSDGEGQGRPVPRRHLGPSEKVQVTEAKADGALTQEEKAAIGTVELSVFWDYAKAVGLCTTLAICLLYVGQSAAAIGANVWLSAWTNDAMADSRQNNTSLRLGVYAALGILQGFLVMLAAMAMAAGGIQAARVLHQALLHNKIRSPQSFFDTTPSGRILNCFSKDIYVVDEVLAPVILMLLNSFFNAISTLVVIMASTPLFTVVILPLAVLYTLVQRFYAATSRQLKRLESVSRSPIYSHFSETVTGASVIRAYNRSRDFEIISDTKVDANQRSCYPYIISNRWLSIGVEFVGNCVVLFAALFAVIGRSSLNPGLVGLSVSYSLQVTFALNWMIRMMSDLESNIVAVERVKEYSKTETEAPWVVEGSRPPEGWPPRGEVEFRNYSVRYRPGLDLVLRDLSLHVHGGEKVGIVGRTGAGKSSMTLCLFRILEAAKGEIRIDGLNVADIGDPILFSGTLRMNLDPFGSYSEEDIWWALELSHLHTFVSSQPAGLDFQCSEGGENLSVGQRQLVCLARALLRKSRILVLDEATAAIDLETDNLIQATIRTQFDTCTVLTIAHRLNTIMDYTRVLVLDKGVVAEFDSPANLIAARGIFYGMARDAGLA

Turning to `CN(Cc1cnc2nc(N)nc(N)c2n1)c1ccc(C(=O)N[C@@H](CCC(=O)O)C(=O)O)cc1`, the Activity entry is “substrate [+]”.
For `CCCCC/C=C\C\C=C/C=C/C=C/[C@@H](SC[C@@H](NC(=O)CC[C@H](N)C(=O)O)C(=O)NCC(=O)O)[C@@H](O)CCCC(=O)O`, the Activity result was “substrate [+]”.

Values taken from ChEMBL document CHEMBL2073892, “Substitution of Trp1242 of TM17 alters substrate specificity of human multidrug resistance protein 3” (Am J Physiol Gastrointest Liver Physiol, 2003).
